From ChEMBL document CHEMBL1125471, “Isopropyl and phenyl esters of 3 beta-(4-substituted phenyl)tropan-2 beta-carboxylic acids. Potent and selective compounds for the dopamine transporter” (J Med Chem, 1992)

Experiments:
[1] = molecular target: Sodium-dependent serotonin transporter (Rattus norvegicus) (UniProt P31652); assay: Ratio of IC50(5-HT) to the IC50(DA)
[2] = molecular target: T1, Sodium-dependent dopamine transporter (Rattus norvegicus, UniProt P23977); assay: Inhibition of [3H]WIN-35428l binding to Dopamine transporter
T1 sequence (P23977 whole entry): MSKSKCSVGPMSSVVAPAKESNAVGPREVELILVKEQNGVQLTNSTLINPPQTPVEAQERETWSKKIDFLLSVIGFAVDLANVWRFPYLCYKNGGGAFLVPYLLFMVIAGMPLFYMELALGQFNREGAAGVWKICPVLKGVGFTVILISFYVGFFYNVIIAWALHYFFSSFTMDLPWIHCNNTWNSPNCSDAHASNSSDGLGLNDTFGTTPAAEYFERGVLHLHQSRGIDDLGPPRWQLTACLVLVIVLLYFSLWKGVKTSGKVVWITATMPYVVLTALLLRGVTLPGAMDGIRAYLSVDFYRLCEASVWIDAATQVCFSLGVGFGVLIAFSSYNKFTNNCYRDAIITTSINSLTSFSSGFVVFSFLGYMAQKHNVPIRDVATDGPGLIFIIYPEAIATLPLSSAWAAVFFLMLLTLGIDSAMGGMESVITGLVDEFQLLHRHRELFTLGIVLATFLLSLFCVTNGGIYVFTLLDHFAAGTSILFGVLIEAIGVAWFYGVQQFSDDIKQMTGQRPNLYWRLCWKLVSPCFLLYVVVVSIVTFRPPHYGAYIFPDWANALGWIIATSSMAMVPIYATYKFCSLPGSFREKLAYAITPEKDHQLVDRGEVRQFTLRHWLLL

[3] = molecular target: Sodium-dependent serotonin transporter (Rattus norvegicus, UniProt P31652); assay: Inhibition of [3H]paroxetine binding to Serotonin transporter
Sodium-dependent serotonin transporter, sequence (P31652 whole entry): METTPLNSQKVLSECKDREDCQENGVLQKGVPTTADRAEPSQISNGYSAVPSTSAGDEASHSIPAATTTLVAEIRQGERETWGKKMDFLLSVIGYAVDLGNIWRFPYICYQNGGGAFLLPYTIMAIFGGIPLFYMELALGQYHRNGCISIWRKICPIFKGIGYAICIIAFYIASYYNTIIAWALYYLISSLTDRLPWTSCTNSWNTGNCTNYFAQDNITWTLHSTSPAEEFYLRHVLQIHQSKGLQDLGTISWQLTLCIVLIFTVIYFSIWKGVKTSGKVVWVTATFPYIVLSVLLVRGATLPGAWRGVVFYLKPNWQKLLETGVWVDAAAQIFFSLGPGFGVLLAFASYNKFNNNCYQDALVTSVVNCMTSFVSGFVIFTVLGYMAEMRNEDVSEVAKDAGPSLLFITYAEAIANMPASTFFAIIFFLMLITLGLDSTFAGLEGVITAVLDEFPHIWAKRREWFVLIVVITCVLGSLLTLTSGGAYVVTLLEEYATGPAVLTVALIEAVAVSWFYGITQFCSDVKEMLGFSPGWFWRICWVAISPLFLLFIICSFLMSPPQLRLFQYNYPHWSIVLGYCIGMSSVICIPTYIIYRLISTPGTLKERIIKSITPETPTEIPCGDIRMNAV

[4] = molecular target: T2, Norepinephrine transporter (Rattus norvegicus, UniProt Q9WTR4); assay: Inhibition of [3H]mazindol binding to Norepinephrine transporter
T2 sequence (Q9WTR4 whole entry): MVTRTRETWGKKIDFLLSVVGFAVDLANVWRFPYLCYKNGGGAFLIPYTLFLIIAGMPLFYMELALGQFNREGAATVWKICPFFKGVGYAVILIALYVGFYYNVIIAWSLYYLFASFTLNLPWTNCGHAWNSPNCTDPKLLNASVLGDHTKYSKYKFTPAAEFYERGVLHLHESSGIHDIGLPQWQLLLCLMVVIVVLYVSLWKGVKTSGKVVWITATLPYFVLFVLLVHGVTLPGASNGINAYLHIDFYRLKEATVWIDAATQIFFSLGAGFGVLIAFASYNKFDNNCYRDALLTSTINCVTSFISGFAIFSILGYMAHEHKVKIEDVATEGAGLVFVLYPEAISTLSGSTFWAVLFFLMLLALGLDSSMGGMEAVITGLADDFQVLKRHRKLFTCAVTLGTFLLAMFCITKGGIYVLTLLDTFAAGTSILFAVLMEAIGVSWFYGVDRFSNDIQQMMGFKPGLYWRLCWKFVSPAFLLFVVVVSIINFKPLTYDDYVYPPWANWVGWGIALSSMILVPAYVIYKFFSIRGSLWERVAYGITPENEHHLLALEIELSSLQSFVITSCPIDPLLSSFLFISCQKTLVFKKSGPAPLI

[5] = molecular target: T1, Sodium-dependent dopamine transporter; assay: Compound was evaluated for the inhibition of [3H]WIN-35428l binding to dopamine transporter
[6] = molecular target: T2, Norepinephrine transporter; assay: Compound was evaluated for the inhibition of [3H]mazindol binding to norepinephrine (NE) transporter

Sodium-dependent serotonin transporter (Rattus norvegicus), sequence (P31652 whole entry): as the sequence (P31652 whole entry) above

SMILES	Ratio [1]	IC50 [2] [µM]	IC50 [3] [µM]	IC50 [4] [µM]	IC50 [5] [µM]	IC50 [6] [µM]
CN1C2CC[C@@H]1C[C@H](OC(=O)c1ccccc1)[C@@H]2C(=O)Oc1ccccc1	512	0.112	57.4	37.4	–	–
COC(=O)[C@H]1[C@@H](c2ccc(F)cc2)C[C@H]2CC[C@H]1N2C	–	–	0.759	1.24	–	–
CCCOC(=O)[C@@H]1C2CC[C@H](C[C@@H]1OC(=O)c1ccccc1)N2C	–	–	4.13	–	0.191	15.8
CC(C)OC(=O)[C@@H]1C2CC[C@H](C[C@@H]1c1ccc(I)cc1)N2C	721	0.00043	0.31	0.864	–	–
COC(=O)C1C2CC[C@H](C[C@@H]1c1ccc(Cl)cc1)N2C (some centres undefined)	–	–	0.0445	–	–	–
Cc1ccc([C@H]2C[C@H]3CCC([C@H]2C(=O)Oc2ccccc2)N3C)cc1	9070	0.00327	29.7	10.8	–	–
CC(C)OC(=O)[C@@H]1C2CC[C@H](C[C@@H]1c1ccc(Cl)cc1)N2C	996	0.00141	1.4	2.15	–	–
Cc1ccc([C@H]2C[C@H]3CCC([C@H]2C(=O)OC(C)C)N3C)cc1	1210	0.00529	6.41	4.3	–	–
CN1C2CC[C@@H]1C[C@H](c1ccc(Cl)cc1)[C@@H]2C(=O)Oc1ccccc1	1170	0.00199	2.34	4.57	–	–
CN1C2CC[C@@H]1C[C@H](OC(=O)c1ccccc1)[C@@H]2C(=O)OCCCc1ccccc1	–	–	0.374	–	–	25.1
CCOC(=O)[C@@H]1C2CC[C@H](C[C@@H]1OC(=O)c1ccccc1)N2C	70	0.13	9.06	26.8	–	–
CC(C)OC(=O)[C@@H]1C2CC[C@H](C[C@@H]1OC(=O)c1ccccc1)N2C	122	–	25.7	23.5	–	–
COC(=O)[C@@H]1C2CC[C@H](C[C@@H]1c1ccccc1)N2C	–	–	–	2.08	–	–
COC(=O)[C@@H]1C2CC[C@H](C[C@@H]1c1ccc(C)cc1)N2C	–	0.00171	–	–	–	–
COC(=O)[C@@H]1C2CC[C@H](C[C@@H]1c1ccc(I)cc1)N2C	3.3	0.00126	0.0042	0.0346	–	–
CN1C2CC[C@@H]1C[C@H](c1ccc(I)cc1)[C@@H]2C(=O)Oc1ccccc1	216	0.00151	0.326	18.3	–	–
